Source: patent US11130793B2, “GLP-1/GLP-2 dual agonists” (Zealand Pharma A/S, priority 2016, dated 2021)
pEC50: −log10 of the molar value. Square brackets hold non-standard residues; d marks the D form. Peptide text beside a SMILES is read from it. Aib = CC(C)(N)C(=O)O

Legend:
human GLP-1 receptor = biological target: T1, human GLP-1 receptor (Homo sapiens, UniProt P43220); assay: GLP-1 receptor potency assay (cAMP AlphaScreen, HEK293 cells stably expressing GLP-1R); assay type: cell-based; details: cAMP response, HEK293 cells expressing human GLP-1R; read-out: EC50 GLP-1
T1 construct: expressed in transfected cells
T1 sequence (P43220 24-463): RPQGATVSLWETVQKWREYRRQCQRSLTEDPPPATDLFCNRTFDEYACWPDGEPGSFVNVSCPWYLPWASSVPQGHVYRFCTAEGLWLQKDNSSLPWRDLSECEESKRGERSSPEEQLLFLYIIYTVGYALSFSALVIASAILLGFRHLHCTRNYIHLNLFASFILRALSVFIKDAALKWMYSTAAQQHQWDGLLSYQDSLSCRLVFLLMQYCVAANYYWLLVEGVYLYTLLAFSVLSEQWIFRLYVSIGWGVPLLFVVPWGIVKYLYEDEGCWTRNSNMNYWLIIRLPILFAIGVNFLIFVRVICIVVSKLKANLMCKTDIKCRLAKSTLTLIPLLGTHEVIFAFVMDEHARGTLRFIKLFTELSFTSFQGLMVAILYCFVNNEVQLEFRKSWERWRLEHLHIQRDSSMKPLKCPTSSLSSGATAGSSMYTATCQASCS
In short: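 A HEK293 clone stably expressing cloned human GLP-1R (G418-selected) was stimulated with compound. Intracellular cAMP was measured by AlphaScreen. Responses were normalized to positive and vehicle controls, and EC50 and maximal response were fitted by 4-parameter logistic regression.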

human GLP-2 receptor = biological target: T2, human GLP-2 receptor (Homo sapiens, UniProt O95838, D470N); assay: GLP-2 receptor potency assay (cAMP AlphaScreen, HEK293 cells stably expressing GLP-2R); assay type: cell-based; details: cAMP response, HEK293 cells expressing human GLP-2R
T2 sequence (O95838 1-553 D470N): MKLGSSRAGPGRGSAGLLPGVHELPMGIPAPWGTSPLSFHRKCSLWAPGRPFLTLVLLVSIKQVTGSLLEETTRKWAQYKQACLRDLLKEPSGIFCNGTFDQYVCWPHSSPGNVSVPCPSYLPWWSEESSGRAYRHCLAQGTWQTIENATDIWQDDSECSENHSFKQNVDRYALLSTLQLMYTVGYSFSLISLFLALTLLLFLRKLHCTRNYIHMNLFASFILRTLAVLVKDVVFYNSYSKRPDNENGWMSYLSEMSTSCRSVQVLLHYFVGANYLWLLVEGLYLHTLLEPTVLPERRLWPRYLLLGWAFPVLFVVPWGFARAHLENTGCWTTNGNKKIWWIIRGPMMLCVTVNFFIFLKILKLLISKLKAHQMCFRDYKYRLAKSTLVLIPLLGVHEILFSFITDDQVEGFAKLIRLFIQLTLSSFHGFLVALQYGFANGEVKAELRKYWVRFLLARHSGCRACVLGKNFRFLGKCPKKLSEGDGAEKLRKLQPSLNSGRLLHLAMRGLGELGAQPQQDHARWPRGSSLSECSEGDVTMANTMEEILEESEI
In short: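 HEK293 cells stably expressing human GLP-2R (G418-selected clone); intracellular cAMP measured by AlphaScreen. Responses normalized to positive and vehicle controls; EC50 and maximal response from 4-parameter logistic fit.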

pEC50 (human GLP-1 receptor) | pEC50 (human GLP-2 receptor) | Molecule
11.15 | 10.39 | CC[C@H](C)[C@H](NC(=O)[C@H](CC(C)C)NC(=O)[C@H](Cc1c[nH]c2ccccc12)NC(=O)[C@H](C)NC(=O)[C@@H](NC(=O)[C@H](Cc1ccccc1)NC(=O)[C@H](CC(=O)O)NC(=O)[C@H](CCCNC(=N)N)NC(=O)[C@H](C)NC(=O)[C@H](C)NC(=O)[C@H](CCC(N)=O)NC(=O)[C@H](CCC(=O)O)NC(=O)[C@H](CC(=O)O)NC(=O)[C@H](CC(C)C)NC(=O)[C@@H](NC(=O)[C@@H](NC(=O)[C@H](C)NC(=O)[C@H](CC(C)C)NC(=O)[C@H](CCC(=O)O)NC(=O)[C@H](CC(=O)O)NC(=O)[C@@H](NC(=O)[C@H](Cc1ccccc1)NC(=O)[C@@H](NC(=O)CNC(=O)[C@H](CCC(=O)O)NC(=O)C(C)(C)NC(=O)[C@@H](N)Cc1c[nH]cn1)[C@@H](C)O)[C@@H](C)O)[C@@H](C)O)[C@@H](C)CC)[C@@H](C)CC)C(=O)N[C@@H](C)C(=O)N[C@@H](Cc1c[nH]cn1)C(=O)N[C@@H](CCCCN)C(=O)N[C@H](C(=O)N[C@H](C(=O)N[C@@H](CC(=O)O)C(=O)O)[C@@H](C)O)[C@@H](C)CC [Compound 9] (H-H[Aib]EGTFTDELATILDEQAARDFIAWLIAHKITD-OH)
10.96 | 10.07 | CC[C@H](C)[C@H](NC(=O)[C@H](CC(C)C)NC(=O)[C@H](Cc1c[nH]c2ccccc12)NC(=O)[C@H](C)NC(=O)[C@@H](NC(=O)[C@H](Cc1ccccc1)NC(=O)[C@H](CC(=O)O)NC(=O)[C@H](CCCNC(=N)N)NC(=O)[C@H](C)NC(=O)[C@H](C)NC(=O)[C@H](CCCCN)NC(=O)CNC(=O)[C@H](CC(=O)O)NC(=O)[C@H](CC(C)C)NC(=O)[C@@H](NC(=O)[C@@H](NC(=O)[C@H](C)NC(=O)[C@H](CC(C)C)NC(=O)[C@H](CCC(=O)O)NC(=O)[C@H](CO)NC(=O)[C@@H](NC(=O)[C@H](Cc1ccccc1)NC(=O)[C@@H](NC(=O)CNC(=O)[C@H](CCC(=O)O)NC(=O)C(C)(C)NC(=O)[C@@H](N)Cc1c[nH]cn1)[C@@H](C)O)[C@@H](C)O)[C@@H](C)O)[C@@H](C)CC)[C@@H](C)CC)C(=O)N[C@@H](C)C(=O)N[C@@H](Cc1c[nH]cn1)C(=O)N[C@@H](CCCCN)C(=O)N[C@H](C(=O)N[C@H](C(=O)N[C@@H](CC(=O)O)C(=O)O)[C@@H](C)O)[C@@H](C)CC [Compound 11] (H-H[Aib]EGTFTSELATILDGKAARDFIAWLIAHKITD-OH)
8.85 | 10.30 | H-HGEGSFSSELATILDEQAARDFIAWLIQHKITD-NH2 [Compound 40]
9.92 | 10.47 | CC[C@H](C)[C@H](NC(=O)[C@H](Cc1ccccc1)NC(=O)[C@H](CC(=O)O)NC(=O)[C@H](CCCNC(=N)N)NC(=O)[C@H](C)NC(=O)[C@H](C)NC(=O)[C@H](CCC(N)=O)NC(=O)[C@H](CCC(=O)O)NC(=O)[C@H](CC(=O)O)NC(=O)[C@H](CC(C)C)NC(=O)[C@@H](NC(=O)[C@@H](NC(=O)[C@H](C)NC(=O)[C@H](CC(C)C)NC(=O)[C@H](CCC(=O)O)NC(=O)[C@H](CO)NC(=O)[C@@H](NC(=O)[C@H](Cc1ccccc1)NC(=O)[C@H](CO)NC(=O)CNC(=O)[C@H](CCC(=O)O)NC(=O)C(C)(C)NC(=O)[C@@H](N)Cc1c[nH]cn1)[C@@H](C)O)[C@@H](C)O)[C@@H](C)CC)C(=O)N[C@@H](C)C(=O)N[C@@H](Cc1c[nH]c2ccccc12)C(=O)N[C@@H](CC(C)C)C(=O)N[C@@H](Cc1ccc(O)cc1)C(=O)N[C@@H](CCC(=O)O)C(=O)N[C@@H](Cc1c[nH]cn1)C(=O)N[C@@H](CCCCN)C(=O)N[C@H](C(=O)N[C@H](C(=O)N[C@@H](CC(=O)O)C(=O)O)[C@@H](C)O)[C@@H](C)CC [Compound 23] (H-H[Aib]EGSFTSELATILDEQAARDFIAWLYEHKITD-OH)
